From ChEMBL document CHEMBL1132074, “Potent and selective bicyclic lactam inhibitors of thrombin: Part 3: P1' modifications” (Bioorg Med Chem Lett, 1999)

Experiments:
[1] = target: Prothrombin (Homo sapiens, UniProt P00734); test: Inhibition of human Thrombin
[2] = target: T1, Serine protease 1 (Homo sapiens, UniProt P07477); test: In vitro inhibitory activity against human trypsin
[3] = target: T1, Serine protease 1; test: In vitro inhibitory activity against human trypsin at 100 uM

T1 sequence (P07477 whole entry): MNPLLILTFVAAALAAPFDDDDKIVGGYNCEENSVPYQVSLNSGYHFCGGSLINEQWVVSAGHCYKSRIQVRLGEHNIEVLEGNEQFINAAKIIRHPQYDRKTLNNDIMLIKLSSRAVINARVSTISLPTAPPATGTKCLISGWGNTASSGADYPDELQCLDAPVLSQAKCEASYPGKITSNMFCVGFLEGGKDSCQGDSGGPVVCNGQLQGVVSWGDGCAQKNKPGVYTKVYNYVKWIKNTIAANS

Structure (SMILES) | IC50 [1] | IC50 [2] | inhibition [3]
Cc1nc(C(=O)[C@H](CCCN=C(N)N)NC(=O)[C@@H]2CC[C@H]3CN(C(=O)CCc4ccccc4)CC(=O)N32)sc1CCO | 15 nM | 12 nM | –
N=C(N)N1CCCC(C[C@H](NC(=O)[C@@H]2CC[C@H]3CN(C(=O)CCc4ccccc4)CC(=O)N32)C(=O)c2nc3ccccc3s2)C1 (some centres not stated) | < 1 nM | 590 nM | –
N=C(N)NCCC[C@H](NC(=O)[C@@H]1CC[C@H]2CN(C(=O)CCc3ccccc3)CC(=O)N21)C(=O)c1nccs1 | – | < 1 nM | –
N=C(N)NCCC[C@H](NC(=O)[C@@H]1CC[C@H]2CN(C(=O)CCc3ccccc3)CC(=O)N21)C(=O)c1nc2ccccc2s1 | < 1 nM | < 1 nM | –
N=C(N)c1cccc(CC(NC(=O)[C@@H]2CC[C@H]3CN(C(=O)CCc4ccccc4)CC(=O)N32)C(=O)c2nc3ccccc3s2)c1 (some centres not stated) | 57 nM | 970 nM | –
Cc1csc(C(=O)C(CCCNC(=N)N)NC(=O)[C@@H]2CC[C@H]3CN(C(=O)CCc4ccccc4)CC(=O)N32)n1 (some centres not stated) | 44 nM | 24 nM | –
N=C(N)NCCC[C@H](NC(=O)[C@@H]1CC[C@H]2CN(C(=O)CCc3ccccc3)CC(=O)N21)C(=O)c1nc2c(s1)CCC2 | 18 nM | 2 nM | –

Other lines, results leading:

IC50 [1] | IC50 [2] | inhibition [3] | Structure (SMILES)
340 nM | 160 nM | – | N=C(N)NCCC[C@H](NC(=O)[C@@H]1CC[C@H]2CN(C(=O)CCc3ccccc3)CC(=O)N21)C(=O)c1ccccn1
2050 nM | 8490 nM | – | Cn1c(C(=O)[C@H](CCCCN)NC(=O)[C@@H]2CC[C@H]3CN(C(=O)CCc4ccccc4)CC(=O)N32)nc2ccccc21
450 nM | 18700 nM | – | Cn1c(C(=O)[C@H](Cc2cccc(C(=N)N)c2)NC(=O)[C@@H]2CC[C@H]3CN(C(=O)CCc4ccccc4)CC(=O)N32)nc2ccccc21
77 nM | 14 nM | – | NCCCC[C@H](NC(=O)[C@@H]1CC[C@H]2CN(C(=O)CCc3ccccc3)CC(=O)N21)C(=O)c1nccs1
51 nM | 3360 nM | – | Cn1c(C(=O)[C@H](CCCNC(=N)N)NC(=O)[C@@H]2CC[C@H]3CN(C(=O)CCc4ccccc4)CC(=O)N32)nc2ccccc21
750 nM | – | 40% | Cn1c(C(=O)[C@H](CC2CCCN(C(=N)N)C2)NC(=O)[C@@H]2CC[C@H]3CN(C(=O)CCc4ccccc4)CC(=O)N32)nc2ccccc21 (some centres not stated)
2370 nM | 27400 nM | – | Cn1ccnc1C(=O)[C@H](CCCNC(=N)N)NC(=O)[C@@H]1CC[C@H]2CN(C(=O)CCc3ccccc3)CC(=O)N21
